Measurements taken from patent US9066848B2, “Process for making sterile aripiprazole of desired mean particle size” (Bristol-Myers Squibb Company, priority 2003, dated 2015).

Key:
[1] = at room temperature; cited from earlier work
[2] = particle size of crystallized bulk aripiprazole; format: physicochemical

particle size (95% of particles) ([2]; Example 1: impinging jet crystallization with sonication, 2° C. water anti-solvent): < 100 microns
particle size (95% of particles) ([2]; Example 2: impinging jet crystallization without sonication, 30° C. water anti-solvent): < 100 microns
particle size ([2]; batch crystallization (comparison)): 100 microns
SMILES: O=C1CCc2ccc(OCCCCN3CCN(c4cccc(Cl)c4Cl)CC3)cc2N1 [Aripiprazole, aripiprazole]
aqueous solubility [1]: < 1 µg/mL
